Assay results from patent US4033960A, “2-Mercaptoquinoxaline-di-N-oxide products and a method for their preparation” (Bayer Aktiengesellschaft, priority 1973, dated 1977).
In brackets after ≈: the same amount, converted by molar mass.

Tests used:
Assay in all cases: Minimum inhibitory concentration by the plate test (agar)
Assay type in all cases: cell-based
Escherichia coli A 261 = conditions: 0-10 colonies formed, pH 7.4; for Minimum inhibitory concentration: per ml of nutrient medium, 5,000 cells/10 ml
Method: (§1) […] The bacteria to be tested are cast, together with the nutrient medium and the test substance distributed in the agar, into a Petri dish. The number of bacterial cells is 5,000/10 ml of nutrient medium. The minimum inhibitory concentration is the concentration at which 0-10 colonies are formed.

Escherichia coli C 165 = conditions: 0-10 colonies formed, pH 7.4; for Minimum inhibitory concentration: per ml of nutrient medium, 5,000 cells/10 ml
Method: as §1

[1] = test system: Staphylococcus aureus 133; conditions: per ml of nutrient medium, 5,000 cells/10 ml, 0-10 colonies formed, pH 7.4
Method: as §1

Klebsiella 8085 = conditions: per ml of nutrient medium, 5,000 cells/10 ml, 0-10 colonies formed, pH 7.4
Method: as §1

Proteus vulgaris 1017 = conditions: per ml of nutrient medium, 5,000 cells/10 ml, 0-10 colonies formed, pH 7.4
Method: as §1

“6(7)-bromo-2-mercapto-3-methyl-quinoxaline-di-N-oxide [Example 4]” showed a Minimum inhibitory concentration (Escherichia coli A 261) of 100 µg/mL, a Minimum inhibitory concentration (Escherichia coli C 165) of 100 µg/mL and a Minimum inhibitory concentration [1] of 100 µg/mL.

“6(7)-chloro-2-mercapto-3-methyl-quinoxaline-di-N-oxide [Example 2]” was tested, and the Minimum inhibitory concentration (Escherichia coli A 261) was 128 µg/mL, the Minimum inhibitory concentration (Klebsiella 8085) was 128 µg/mL and the Minimum inhibitory concentration (Escherichia coli C 165) was 128 µg/mL. For the same compound, the Minimum inhibitory concentration [1] was 128 µg/mL and the Minimum inhibitory concentration (Proteus vulgaris 1017) was 64 to 128 µg/mL.

“6(7)-fluoro-2-mercapto-3-methyl-quinoxaline-di-N-oxide [Example 3]” showed a Minimum inhibitory concentration (Escherichia coli A 261) of 128 µg/mL, a Minimum inhibitory concentration (Escherichia coli C 165) of 64 to 128 µg/mL and a Minimum inhibitory concentration [1] of 128 µg/mL. The Minimum inhibitory concentration (Proteus vulgaris 1017) was 128 µg/mL.

Compound “6(7)-methoxy-2-mercapto-3-methyl-quinoxaline-di-N-oxide [Example 7]” has a Minimum inhibitory concentration (Escherichia coli A 261) of 128 µg/mL, a Minimum inhibitory concentration (Escherichia coli C 165) of 64 to 128 µg/mL and a Minimum inhibitory concentration [1] of 128 µg/mL. It also gave a Minimum inhibitory concentration (Proteus vulgaris 1017) of 128 µg/mL.

`Cc1c(S)[n+]([O-])c2ccccc2[n+]1[O-]` [Example 1, 2-Mercapto-3-methylquinoxaline-di-N-oxide] was tested, and the MIC (Escherichia coli A 261; A261, per ml of nutrient medium, 5,000 cells/10 ml) was 50 to 100 µg/mL (≈ 240 to 480 µM), the MIC (Klebsiella 8085) was 10 µg/mL (≈ 48 µM) and the MIC (Escherichia coli C 165; C165, per ml of nutrient medium, 5,000 cells/10 ml) was 50 to 100 µg/mL (≈ 240 to 480 µM). The MIC [1] was 100 µg/mL (≈ 480 µM) and the MIC (Proteus vulgaris 1017) was 100 µg/mL (≈ 480 µM).
